Test results published in the supplement of paper PMC4862054.

Legend:
Settings in all cases: incubation time: 72 h
BT-474 [1] = test: normalised response (% of control), CellTox Green; higher = less cell death (100 = DMSO, 0 = benzethonium chloride kill control)
In short: (§1)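 After 72 h with compound in 384-well plates, breast cancer cell lines seeded as 20 µl suspension were read for CellTox Green fluorescence at 485/520 nm. CellTiter-Glo luminescence was then read after 10 min at room temperature. Compound was present at 5 concentrations in 10-fold steps over a 10,000-fold range set per compound, and plates were normalised to 0.1 % DMSO (100) and a positive kill control (0). Values are normalised signals, each at a single concentration.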

BT-549 [2] = test: as above
In short: as §1

CAL-120 [3] = test: as above
In short: as §1

CAL-148 [4] = test: as above
In short: as §1

CAL-51 [5] = test: as above
In short: as §1

CAL-85-1 [6] = test: as above
In short: as §1

DU-4475 [7] = test: as above
In short: as §1

HCC1143 [8] = test: as above
In short: as §1

HCC1599 [9] = test: as above
In short: as §1

HCC1937 [10] = test: as above
In short: as §1

HDQ-P1 [11] = test: as above
In short: as §1

Hs578T [12] = test: as above
In short: as §1

MCF-10A [13] = test: as above
In short: as §1

MDA-MB-231 [14] = test: as above
In short: as §1

MDA-MB-436 [15] = test: as above
In short: as §1

MDA-MB-453 [16] = test: as above
In short: as §1

MDA-MB-468 [17] = test: as above
In short: as §1

MFM-223 [18] = test: as above
In short: as §1

BT-474 [19] = test: normalised response (% of control), CellTiter-Glo; higher = more viable cells (100 = DMSO, 0 = benzethonium chloride kill control)
Experimental: (§2)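 DSRT, 72 h incubation, CellTox Green / CellTiter-Glo readout. Signal is normalised to DMSO and benzethonium chloride controls. Value is the normalised response at the highest dose.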

BT-549 [20] = test: as above
Experimental: as §2

CAL-120 [21] = test: as above
Experimental: as §2

CAL-148 [22] = test: as above
Experimental: as §2

CAL-51 [23] = test: as above
Experimental: as §2

CAL-85-1 [24] = test: as above
Experimental: as §2

DU-4475 [25] = test: as above
Experimental: as §2

HCC1143 [26] = test: as above
Experimental: as §2

HCC1599 [27] = test: as above
Experimental: as §2

HCC1937 [28] = test: as above
Experimental: as §2

HDQ-P1 [29] = test: as above
Experimental: as §2

Hs578T [30] = test: as above
Experimental: as §2

MCF-10A [31] = test: as above
Experimental: as §2

MDA-MB-231 [32] = test: as above
Experimental: as §2

MDA-MB-436 [33] = test: as above
Experimental: as §2

MDA-MB-453 [34] = test: as above
Experimental: as §2

MDA-MB-468 [35] = test: as above
Experimental: as §2

MFM-223 [36] = test: as above
Experimental: as §2

SK-BR-3 = test: as above
Experimental: as §2

Row | Structure (SMILES) | normalised response (BT-474 [1]) [%] | normalised response (BT-549 [2]) [%] | normalised response (CAL-120 [3]) [%] | normalised response (CAL-148 [4]) [%] | normalised response (CAL-51 [5]) [%] | normalised response (CAL-85-1 [6]) [%] | normalised response (DU-4475 [7]) [%] | normalised response (HCC1143 [8]) [%] | normalised response (HCC1599 [9]) [%] | normalised response (HCC1937 [10]) [%] | normalised response (HDQ-P1 [11]) [%] | normalised response (Hs578T [12]) [%] | normalised response (MCF-10A [13]) [%] | normalised response (MDA-MB-231 [14]) [%] | normalised response (MDA-MB-436 [15]) [%] | normalised response (MDA-MB-453 [16]) [%] | normalised response (MDA-MB-468 [17]) [%] | normalised response (MFM-223 [18]) [%] | normalised response (BT-474 [19]) [%] | normalised response (BT-549 [20]) [%] | normalised response (CAL-120 [21]) [%] | normalised response (CAL-148 [22]) [%] | normalised response (CAL-51 [23]) [%] | normalised response (CAL-85-1 [24]) [%] | normalised response (DU-4475 [25]) [%] | normalised response (HCC1143 [26]) [%] | normalised response (HCC1599 [27]) [%] | normalised response (HCC1937 [28]) [%] | normalised response (HDQ-P1 [29]) [%] | normalised response (Hs578T [30]) [%] | normalised response (MCF-10A [31]) [%] | normalised response (MDA-MB-231 [32]) [%] | normalised response (MDA-MB-436 [33]) [%] | normalised response (MDA-MB-453 [34]) [%] | normalised response (MDA-MB-468 [35]) [%] | normalised response (MFM-223 [36]) [%] | normalised response (SK-BR-3) [%]
1 | N#CCNC(=O)c1ccc(-c2ccnc(Nc3ccc(N4CCOCC4)cc3)n2)cc1 [Momelotinib] (10000 nM) | 101 | 31.3 | 97.4 | 100 | 85.1 | 54.6 | 95.5 | 98 | 90 | 102 | 100 | 87 | 90.5 | 19 | 78 | 70.6 | 22 | 97.5 | 55.8 | 23.5 | 50.2 | 97.3 | 58 | 43.7 | 64.8 | 66.6 | 96.8 | 84.5 | 87.1 | 41.4 | 43 | 46.8 | 71 | 104 | 22.2 | 67.2 | 55.1
2 | CCCCCCCCCCCCCCCCCCOP(=O)([O-])OC1CC[N+](C)(C)CC1 [Perifosine] (2500 nM) | 95.6 | 56.7 | 107 | 96.9 | 96.4 | 97.4 | 95.7 | 67 | 99.3 | 108 | 109 | 128 | 117 | 106 | 78 | 83.9 | 133 | 90.3 | 104 | 111 | 104 | 79.9 | 80.7 | 102 | 95.9 | 99.1 | 86.3 | 52.7 | 84.7 | 96.9 | 63.7 | 104 | 87.9 | 98.6 | 97.5 | 92.6 | 60.4
3 | CS(=O)(=O)c1ccc(C2=C(c3ccccc3)C(=O)OC2)cc1 [Rofecoxib] (10000 nM) |  | 102 | 105 | 98.8 | 98.7 | 84.6 | 101 | 114 | 97.2 |  | 112 | 128 | 102 | 108 | 77.7 | 66.6 |  | 68.2 | 94.5 | 103 | 102 | 119 | 71.8 | 100 | 100 | 105 | 100 | 106 | 99.8 | 110 | 109 | 100 | 111 | 98.6 | 113 | 102 | 106
4 | CCC(C)(C)C(=O)O[C@H]1C[C@@H](C)C=C2C=C[C@H](C)[C@H](CC[C@@H]3C[C@@H](O)CC(=O)O3)[C@H]21 [Simvastatin] (10000 nM) | 99.9 | 98.6 | 77.4 | 104 | 46.8 | 84.3 | 99 |  |  | 95.6 | 82.2 |  | 23.2 | -117 | 51.8 | 104 |  | 104 | 47.2 | 87.7 | 91.8 | 102 | 78.4 | 84.4 | 94.2 | 95.9 | 103 | 92.6 | 65 | 91.2 | 23.9 | 30 | 84.9 | 93.3 | 83.2 | 97.9 | 98.9
5 | CC(=O)Nc1ccc(C(=O)Nc2ccccc2N)cc1 [Tacedinaline] (1000 nM) | 97.7 | 114 | 101 | 97.9 | 96.2 | 92.3 | 99 | 75.3 | 98.2 | 83.6 | 104 | 99.3 | 77.3 | 111 | 107 | 98.2 | 58.9 | 105 | 95.2 | 107 | 105 | 95.2 | 113 | 103 | 98 | 100 | 120 | 97.2 | 98.5 | 92.1 | 99.7 | 95.7 | 95 | 98.7 | 108 | 99.7 | 98.9
